Data on five molecules can be found in PMC11514443 (Structure (London, England : 1993), 2019).

In assay [1] the target is CW domain of human MORC3 (aa 401-455) (human) (UniProt Q14149). In words: other fluorescence titration.
The subject of assay [2] is CW domain with W419 mutated to alanine. Kind of assay: binding to MORC3-CW W419A mutant.
Assay [3] concerns the target T1, MORC3-CW (Homo sapiens, UniProt Q14149). The assay is classed as binding.
The target of assay [4] is MORC3-CW E431A mutant (Homo sapiens, UniProt Q14149, E431A). Conditions: NMR and fluorescence.
The test system of assay [5] is CW domain with W410 mutated to alanine. Kind of assay: binding to MORC3-CW W410A mutant.
Assay [6] deals with T1, MORC3-CW. It is filed as binding. Conditions: pH 6.8.
For assay [7], the target named is MORC3 ATPase domain ATPase (Homo sapiens) (UniProt Q14149). Conditions: cited from earlier work.
The target in assay [8] is T2, MORC3-CW E431A mutant (human, UniProt Q14149 401-455, E431A).
T2 sequence (looked up): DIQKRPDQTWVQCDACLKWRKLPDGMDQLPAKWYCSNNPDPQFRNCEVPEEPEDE
Kind of assay: other fluorescence titration.

Square brackets hold non-standard residues; d marks the D form. Ends that are not written are not given here. Peptide text beside a SMILES is read from it. Lys(Me3) = C[N+](C)(C)CCCC[C@H](N)C(=O)O

T1 sequence (Q14149 401-455): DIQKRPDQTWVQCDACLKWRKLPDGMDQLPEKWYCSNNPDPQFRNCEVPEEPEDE
Chain of MORC3 ATPase domain ATPase (Homo sapiens) (Q14149 1-400): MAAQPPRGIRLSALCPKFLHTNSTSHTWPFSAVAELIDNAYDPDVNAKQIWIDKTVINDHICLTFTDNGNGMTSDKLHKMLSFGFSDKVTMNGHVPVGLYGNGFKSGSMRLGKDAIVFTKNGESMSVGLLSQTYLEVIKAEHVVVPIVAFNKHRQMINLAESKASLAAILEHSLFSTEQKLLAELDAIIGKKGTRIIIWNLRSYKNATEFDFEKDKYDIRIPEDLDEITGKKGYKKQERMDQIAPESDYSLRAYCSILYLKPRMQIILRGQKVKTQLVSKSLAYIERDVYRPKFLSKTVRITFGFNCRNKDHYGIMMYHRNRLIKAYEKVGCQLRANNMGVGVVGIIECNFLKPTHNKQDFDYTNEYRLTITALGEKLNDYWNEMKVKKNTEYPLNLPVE
Chain of MORC3 CW (Q14149 404-454): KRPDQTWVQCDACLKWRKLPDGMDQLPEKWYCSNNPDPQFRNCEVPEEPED

With “unmodified NS1 peptide (residues 222-230 of NS1)”, in assay [1], the equilibrium dissociation constant (Kd) worked out at 157 µM. For the molecule `CSCC[C@H](N)C(=O)N[C@@H](C)C(=O)N[C@@H](CCCNC(=N)N)C(=O)N[C@H](C(=O)N[C@@H](C)C(=O)N[C@@H](CCCNC(=N)N)C(=O)N[C@@H](CO)C(=O)N[C@@H](CCCC[N+](C)(C)C)C(=O)N[C@H](C(=O)O)C(C)C)[C@@H](C)O` [NS1K229me3] (H-MARTARS[Lys(Me3)]V-OH; N-terminus and C-terminus assumed), the “binding to W419A mutant” value in assay [2] is recorded as “abrogated binding”. The “fold increase in binding affinity vs unmodified NS1 peptide” value at MORC3-CW [3] is reported as ~ 11 fold. In addition, the “binding to E431A mutant” value on MORC3-CW E431A mutant [4] is listed as “capable of binding”. Besides, the “binding to W410A mutant” value in assay [5] is recorded as “abrogated binding”. Besides, the “chemical shift perturbations (CSPs) in MORC3-CW” value at MORC3-CW [6] is “large chemical shift perturbations (CSPs)”. Turning to MORC3 CW (from UniProt Q14149), the equilibrium dissociation constant (Kd) in assay [7] was 9 µM. For “NS1 peptide trimethylated at K229 (residues 222-230 of NS1)”, the Kd in assay [1] was 14 µM.

For the molecule ARTK(Me3)QTARKSTG (peptide, UniProt P68431 2-13, looked up) [histone H3 peptide trimethylated at lysine 4 (residues 1-12)], in the assay with MORC3-CW E431A mutant [8], the Kd is 600 nM.

The Kd is the equilibrium constant for the complex coming apart.
